Laboratory results published in US20170066717A1, “NEW PHENYLAZETIDINECARBOXYLATE OR -CARBOXAMIDE COMPOUNDS” (INVENTIVA, priority 2014, published 2017).

Columns and labels:
NURR-1/RXRγ = molecular target: T1, NURR-1/RXRγ (Homo sapiens, UniProt P48443); assay: Transactivation test, NURR-1-Gal4/RXRγ, luciferase reporter in Cos-7 cells; format: cell-based; conditions: for Emax: COS-7, induction level relative to reference XCT0135908 at 2×10^−5 M (=100%), read-out: hNurr1_RXRgFL Emax (%); for EC50: Cos-7 cells, NURR-1-Gal4/RXRγ, luciferase reporter, read-out: hNurr1_RXRgFL EC50
T1 construct: expressed in transfected cells; host or cells: Cos-7 cells

NURR-1/RXRα = molecular target: T2, NURR-1/RXRα (Homo sapiens, UniProt P19793); assay: Transactivation test, NURR-1-Gal4/RXRα, luciferase reporter in Cos-7 cells; format: cell-based; conditions: for Emax: COS-7, induction level relative to reference XCT0135908 at 2×10^−5 M (=100%), read-out: hNurr1_RXRaFL Emax (%); for EC50: Cos-7 cells, NURR-1-Gal4/RXRα, luciferase reporter, read-out: hNurr1_RXRaFL EC50
T2 construct: expressed in transfected cells; host or cells: Cos-7 cells

[1] = induction level relative to reference XCT0135908 at 2×10^−5 M (=100%)

T2 sequence (P19793 whole entry, the tested form may be a part): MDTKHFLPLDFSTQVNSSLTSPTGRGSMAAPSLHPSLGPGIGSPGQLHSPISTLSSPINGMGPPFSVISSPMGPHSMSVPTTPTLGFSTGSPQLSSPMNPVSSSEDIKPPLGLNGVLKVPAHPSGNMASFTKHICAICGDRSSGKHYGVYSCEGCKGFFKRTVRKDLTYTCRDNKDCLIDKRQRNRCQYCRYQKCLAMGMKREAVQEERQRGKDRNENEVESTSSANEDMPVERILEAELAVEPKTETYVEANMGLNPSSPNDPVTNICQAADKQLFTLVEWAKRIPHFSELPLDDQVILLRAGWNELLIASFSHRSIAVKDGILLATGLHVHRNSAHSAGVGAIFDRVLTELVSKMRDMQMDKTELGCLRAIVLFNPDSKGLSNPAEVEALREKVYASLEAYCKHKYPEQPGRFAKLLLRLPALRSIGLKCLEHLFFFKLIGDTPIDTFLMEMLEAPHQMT
T2 sequence (P43354 whole entry partner, the tested form may be a part): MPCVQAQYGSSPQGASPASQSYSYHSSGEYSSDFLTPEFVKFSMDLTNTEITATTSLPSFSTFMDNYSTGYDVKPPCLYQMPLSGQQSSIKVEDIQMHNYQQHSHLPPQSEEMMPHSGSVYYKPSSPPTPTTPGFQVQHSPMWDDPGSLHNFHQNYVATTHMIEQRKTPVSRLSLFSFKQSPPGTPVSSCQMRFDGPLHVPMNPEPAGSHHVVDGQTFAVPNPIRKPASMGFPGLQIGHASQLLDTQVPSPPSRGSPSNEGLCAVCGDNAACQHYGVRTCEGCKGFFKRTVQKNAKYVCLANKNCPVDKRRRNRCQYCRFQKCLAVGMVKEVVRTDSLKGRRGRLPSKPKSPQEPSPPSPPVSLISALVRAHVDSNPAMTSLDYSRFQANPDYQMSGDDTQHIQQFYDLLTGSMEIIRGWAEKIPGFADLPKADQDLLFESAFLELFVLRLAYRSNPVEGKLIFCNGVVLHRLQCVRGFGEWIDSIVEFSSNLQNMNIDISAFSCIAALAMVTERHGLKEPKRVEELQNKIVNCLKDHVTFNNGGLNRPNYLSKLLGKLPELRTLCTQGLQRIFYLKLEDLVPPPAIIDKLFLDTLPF
T2 sequence (P04386 1-147 partner limits assumed): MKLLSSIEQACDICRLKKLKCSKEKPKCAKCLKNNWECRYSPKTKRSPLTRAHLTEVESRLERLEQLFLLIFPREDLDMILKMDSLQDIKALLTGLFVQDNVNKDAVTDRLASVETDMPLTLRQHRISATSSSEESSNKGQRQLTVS
T1 sequence (P48443 whole entry, the tested form may be a part): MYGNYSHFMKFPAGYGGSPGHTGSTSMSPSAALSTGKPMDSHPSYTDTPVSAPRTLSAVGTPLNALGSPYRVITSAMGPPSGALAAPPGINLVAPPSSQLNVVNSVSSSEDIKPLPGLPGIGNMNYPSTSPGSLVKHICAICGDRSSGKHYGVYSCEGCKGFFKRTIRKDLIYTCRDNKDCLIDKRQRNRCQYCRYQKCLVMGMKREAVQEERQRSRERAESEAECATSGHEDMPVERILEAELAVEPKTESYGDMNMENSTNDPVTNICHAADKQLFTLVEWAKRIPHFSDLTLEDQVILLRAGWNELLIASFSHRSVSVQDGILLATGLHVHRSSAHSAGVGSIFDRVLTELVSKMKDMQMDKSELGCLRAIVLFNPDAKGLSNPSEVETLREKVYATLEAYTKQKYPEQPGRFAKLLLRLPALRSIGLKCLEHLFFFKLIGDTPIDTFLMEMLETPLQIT
T1 sequence (P43354 whole entry partner, the tested form may be a part): as the sequence (P43354 whole entry partner, the tested form may be a part) above
T1 sequence (P04386 1-147 partner limits assumed): as the sequence (P04386 1-147 partner limits assumed) above

SMILES	Emax (NURR-1/RXRγ)	EC50 (NURR-1/RXRγ)	Emax (NURR-1/RXRα)	EC50 (NURR-1/RXRα)	melting point	hNurr1_RXRgFL Emax (%) (NURR-1/RXRγ; [1])	hNurr1_RXRaFL Emax (%) (NURR-1/RXRα; [1])
CC1(C)Cc2cc(C(F)(F)F)ccc2N(c2cccc(N3CC(C(=O)O)C3)c2)C1=O [Example 259, 1-[3-[3,3-dimethyl-2-oxo-6-(trifluoromethyl)-4H-quinolin-1-yl]phenyl]azetidine-3-carboxylic acid]	98%	0.349 µM	95%	0.101 µM	96 to 100 °C		
COc1ccc2c(c1)OC(C)(C)CN2c1cccc(N2CC(C(=O)O)C2)c1 [Example 233, 1-[3-(7-methoxy-2,2-dimethyl-3H-1,4-benzoxazin-4-yl)phenyl]azetidine-3-catboxylic aicd]	52%	1.5 µM	97%	1.57 µM	54 to 56 °C		
O=C(O)C1CN(c2cccc(N3CCCc4cc(C(F)(F)F)ccc43)c2)C1 [Example 220, 1-[3-[6-(trifluoromethyl)-3,4-dihydro-2H-quinolin-1-yl]phenyl]azetidine-3-carboxylic acid]	90%	0.014 µM	92%	0.006 µM	57 to 62 °C		
Cc1ccc(N2CC(C(=O)O)C2)cc1N1CC(C)(C)Oc2cc(C(F)(F)F)ccc21 [Example 237, 1-[3-[2,2-dimethyl-7-(trifluoromethyl)-3H-1,4-benzoxazin-4-yl]-4-methylphenyl]azetidine-3-carboxylic acid]	77%	0.257 µM	82%	0.057 µM	74 to 83 °C		
CC(C)c1ccc2c(c1)OC(C)(C)CCN2c1cccc(N2CC(C(=O)O)C2)c1 [Example 234, 1-[3-(8-isopropyl-2,2-dimethyl-3,4-dihydro-1,5-benzoxazepin-5-yl)phenyl]azetidine-3-carboxylic acid]	81%	2.26 µM	95%	1.71 µM	64 to 68 °C		
CC1(C)CNc2cc(C(F)(F)F)cc(-c3cccc(N4CC(C(=O)O)C4)c3)c2O1 [Example 202, 1-[3-[2,2-dimethyl-6-(trifluoromethyl)-3,4-dihydro-1,4-benzoxazin-8-yl]phenyl]azetidine-3-carboxylic acid]	51%	0.303 µM	55%	0.309 µM	160 to 169 °C		
CC1(C)CNc2c(cc(OC(F)(F)F)cc2-c2cccc(N3CC(C(=O)O)C3)c2)O1 [Example 188, 1-[3-[2.2-dimethyl-7-(trifluoromethoxy)-3,4-dihydro-1,4-benzoxazin-5-yl]phenyl]azetidine-3-carboxylic acid]	98%	0.009 µM	100%	0.007 µM	67 to 74 °C		
O=C(O)C1CN(c2cccc(-n3cc(S(=O)(=O)c4ccccc4)c4cc(C(F)(F)F)ccc43)c2)C1 [Example 135, 1-[3-[3-(benzenesulfonyl)-5-(trifluoromethyl)indol-1-yl]phenyl]azetidine-3-carboxylic acid]	83%	0.065 µM	77%	0.034 µM	150 to 153 °C		
Cc1ccc2c(c1)OC(C)(C)CN2c1cccc(N2CC(C(=O)O)C2)c1 [Example 227, 1-[3-(2,2,7-trimethyl-3H-1,4-benzoxazin-4-yl)phenyl]azetidine-3-carboxylic acid]	93%	0.181 µM	104%	0.078 µM	68 to 78 °C		
Cc1ccc2c(c1)OC(C)(C)C(=O)N2c1cccc(N2CC(C(=O)O)C2)c1 [Example 249, 1-[3-(2,2,7-trimethyl-3-oxo-1,4-benzoxazin-4-yl)phenyl]azetidine-3-carboxylic acid]	83%	0.548 µM	95%	0.245 µM	78 to 91 °C		
Cc1cc(N2CC(C(=O)O)C2)cc(N2CC(C)(C)Oc3cc(C(F)(F)F)ccc32)c1 [Example 116, 1-[3-[2,2-dimethyl-7-(trifluoromethyl)-3H-1,4-benzoxazin-4-yl]-5-methylphenyl]azetidine-3-carboxylic acid]	115%	0.001 µM	111%	0.002 µM	93 to 98 °C		
COc1cc2c(c(-c3cccc(N4CC(C(=O)[O-])C4)c3)c1)NCC(C)(C)O2.[Na+] [Example 193, sodium 1-[3-(7-methoxy-2,2-dimethyl-3,4-dihydro-1,4-benzoxazin-5-yl)phenyl]azetidine-3-carboxylate]	85%	0.799 µM	109%	1.17 µM	144 to 152 °C		
CC(C)c1ccc2c(c1)OC(C)(C)C(=O)N2c1cccc(N2CC(C(=O)O)C2)c1 [Example 251, 1-[3-(7-isopropyl-2,2-dimethyl-3-oxo-1,4-benzoxazin-4-yl)phenyl]azetidine-3-carboxylic acid]	88%	0.766 µM	93%	0.514 µM	104 to 108 °C		
COCCNCc1cn(-c2cccc(N3CC(C(=O)O)C3)c2)c2ccc(C(F)(F)F)cc12 [Example 133, 1-[3-[3-[(2-methoxyethylamino)methyl]-5-(trifluoromethyl)indol-1-yl]phenyl]azetidine-3-carboxylic acid]	61%	1.98 µM	93%	1.02 µM	116 to 121 °C		
CC(C)C1Oc2cc(C(F)(F)F)ccc2N(c2cccc(N3CC(C(=O)O)C3)c2)C1=O (stereo not drawn) [Example 248, 1-[3-[2-isopropyl-3-oxo-7-(trifluoromethyl)-1,4-benzoxazin-4-yl]phenyl]azetidine-3-carboxylic acid]	92%	0.313 µM	105%	0.022 µM	78 to 87 °C		
Cc1c(N2CC(C(=O)O)C2)cccc1N1CC(C)(C)Oc2cc(C(F)(F)F)ccc21 [Example 238]	82%	0.154 µM	86%	0.103 µM	168 to 171 °C		
O=C(O)C1CN(c2cccc(-n3cc(CC4CCC4)c4cc(C(F)(F)F)ccc43)c2)C1 [Example 126, 1-[3-[3-(cyclobutylmethyl)-5-(trifluromethyl)indol-1-yl]phenyl]azetidine-3-carboxylc acid]	116%	0.003 µM	128%	0.001 µM	58 to 64 °C		
O=C(O)C1CN(c2cccc(N3c4ccc(C(F)(F)F)cc4C4CCCC43)c2)C1 (stereo not drawn) [Example 146, 1-[3-[7-(trifluoromethyl)-2,3,3a,8b-tetrahydro-1H-cyclopenta[b]indol-4-yl]phenyl]azetidine-3-carboxylic acid]	107%	0.017 µM	96%	0.01 µM	61 to 65 °C		
CC1(C)CCC2C(C1)c1cc(C(F)(F)F)ccc1N2c1cccc(N2CC(C(=O)O)C2)c1 (single isomer, unassigned; isomer 2) [Example 145-2, 1-[3-[3,3-dimethyl-6-(trifluoromethyl)-2,4,4a,9a-teterahydro-1H-carbazol-9-yl]phenyl]azetidine-3-carboxylic acid (isomer 2)]		< 0.001 µM		0.002 µM	82 to 94 °C	99%	86%
Cc1ccc(N2CC(C(=O)O)C2)cc1-c1cccc(C(C)C)c1 [Example 69, 1-[3-(3-isopripylphenyl)-4-methylphenyl]azetidine-3-carboxylic acid]	57%	0.142 µM	63%	0.146 µM	71 to 76 °C		
CC(C)c1ccc2c(c1)CCCN2c1cccc(N2CC(C(=O)[O-])C2)c1.[Na+] [Example 221, sodium 1-[3-(6-isopropyl-3,4-dihydro-2H-1uinolin-1-yl)phenyl]azetidine-3-carboxylate]	92%	0.228 µM	97%	0.068 µM	49 to 52 °C		
O=C(O)C1CN(c2cccc(-c3cc(C(F)(F)F)cc4c3NCCC4)c2)C1 [Example 201, 1-[3-[6-(trofluromethyl)-1,2,3,4-tetrahydroquinolin-8-yl]phenyl]azetidine-3-carboxylic acid]	65%	0.76 µM	99%	0.284 µM	75 to 81 °C		
CC(C)C1CN(c2cccc(N3CC(C(=O)O)C3)c2)c2ccc(C(F)(F)F)cc2O1 (stereo not drawn) [Example 223, 1-[3-[2-isopropyl-7-(trifluoromethyl)-2,3-dihydro-1,4-benzoxazin-4-yl]phenyl]azetidine-3-carboxylic acid]	81%	0.048 µM	80%	0.025 µM	64 to 71 °C		
CC1(C)Oc2cc(C(F)(F)F)ccc2N(c2cccc(N3CC(C(=O)O)C3)c2)C1=O [Example 120, 1-[3-[2,2-dimethyl-3-oxo-7-(trifluoremethyl)-1,4-benzoxazin-4-yl]phenyl]azetidine-3-carboxylic acid]	112%	0.034 µM	108%	0.02 µM	80 to 86 °C		
